Source: the NIST ThermoML archive (doi:10.1016/j.jct.2015.09.020)

Assay: mn = molality of the nth substance listed, in mol/kg
Conditions: 101.3 kPa, Liquid

N[C@@H](CCC(=O)[O-])C(=O)O.[Na+] [sodium (S)-2-amino-4-carboxybutanoate] + O
speed of sound [m/s]
Conditions | 278.15 K | 288.15 K | 298.15 K
Frequency=2 MHz, Linear variable-path acoustic interferometer, m1 = 0.0467 | 1433.6 | – | –
Frequency=2 MHz, Linear variable-path acoustic interferometer, m1 = 0.0724 | 1437.7 | – | –
Frequency=2 MHz, Linear variable-path acoustic interferometer, m1 = 0.091 | 1441 | – | –
Frequency=2 MHz, Linear variable-path acoustic interferometer, m1 = 0.1095 | 1442.8 | – | –
Frequency=2 MHz, Linear variable-path acoustic interferometer, m1 = 0.1355 | 1446.8 | – | –
Frequency=2 MHz, Linear variable-path acoustic interferometer, m1 = 0.163 | 1451.4 | – | –
Frequency=2 MHz, Linear variable-path acoustic interferometer, m1 = 0.1906 | 1455.3 | – | –
Frequency=2 MHz, Linear variable-path acoustic interferometer, m1 = 0.2075 | 1458.8 | – | –
Frequency=2 MHz, Linear variable-path acoustic interferometer, m1 = 0.2251 | 1461.7 | – | –
Frequency=2 MHz, Linear variable-path acoustic interferometer, m1 = 0.2436 | 1464 | – | –
Frequency=2 MHz, Linear variable-path acoustic interferometer, m1 = 0.2705 | 1468.1 | – | –
Frequency=2 MHz, Linear variable-path acoustic interferometer, m1 = 0.2895 | 1471.7 | – | –
Frequency=2 MHz, Linear variable-path acoustic interferometer, m1 = 0.302 | 1473.6 | – | –
Frequency=3 MHz, Sing-around technique in a fixed-path interferometer, m1 = 0.0469 | – | 1472.9 | 1502.5
Frequency=3 MHz, Sing-around technique in a fixed-path interferometer, m1 = 0.072 | – | 1476.6 | 1505.8
Frequency=3 MHz, Sing-around technique in a fixed-path interferometer, m1 = 0.0904 | – | 1478.9 | 1508.2
Frequency=3 MHz, Sing-around technique in a fixed-path interferometer, m1 = 0.1082 | – | 1481.3 | 1510.5
Frequency=3 MHz, Sing-around technique in a fixed-path interferometer, m1 = 0.1368 | – | 1485.6 | 1514.4
Frequency=3 MHz, Sing-around technique in a fixed-path interferometer, m1 = 0.1628 | – | 1489.3 | 1517.9
Frequency=3 MHz, Sing-around technique in a fixed-path interferometer, m1 = 0.19 | – | 1492.9 | 1521.3
Frequency=3 MHz, Sing-around technique in a fixed-path interferometer, m1 = 0.2089 | – | 1495.3 | 1523.6
Frequency=3 MHz, Sing-around technique in a fixed-path interferometer, m1 = 0.2289 | – | 1497.5 | 1525.8
Frequency=3 MHz, Sing-around technique in a fixed-path interferometer, m1 = 0.2441 | – | 1499.7 | 1527.8
Frequency=3 MHz, Sing-around technique in a fixed-path interferometer, m1 = 0.264 | – | 1503.2 | 1531.1
Frequency=3 MHz, Sing-around technique in a fixed-path interferometer, m1 = 0.2916 | – | 1506.7 | 1533.9
Frequency=3 MHz, Sing-around technique in a fixed-path interferometer, m1 = 0.316 | – | 1509 | 1537

mass density [kg/m3]
Conditions | 278.15 K | 288.15 K | 298.15 K
Pycnometric method, m1 = 0.0467 | 1004.22 | – | –
Pycnometric method, m1 = 0.0724 | 1006.57 | – | –
Pycnometric method, m1 = 0.091 | 1008.26 | – | –
Pycnometric method, m1 = 0.1095 | 1009.79 | – | –
Pycnometric method, m1 = 0.1355 | 1012.41 | – | –
Pycnometric method, m1 = 0.163 | 1014.89 | – | –
Pycnometric method, m1 = 0.1906 | 1017.32 | – | –
Pycnometric method, m1 = 0.2075 | 1018.82 | – | –
Pycnometric method, m1 = 0.2251 | 1020.29 | – | –
Pycnometric method, m1 = 0.2436 | 1022.15 | – | –
Pycnometric method, m1 = 0.2705 | 1024.19 | – | –
Pycnometric method, m1 = 0.2895 | 1026.12 | – | –
Pycnometric method, m1 = 0.302 | 1027.42 | – | –
Vibrating tube method, m1 = 0.0469 | – | 1003.34 | 1001.22
Vibrating tube method, m1 = 0.072 | – | 1005.66 | 1003.48
Vibrating tube method, m1 = 0.0904 | – | 1007.29 | 1005.08
Vibrating tube method, m1 = 0.1082 | – | 1008.87 | 1006.62
Vibrating tube method, m1 = 0.1368 | – | 1011.34 | 1009.04
Vibrating tube method, m1 = 0.1628 | – | 1013.63 | 1011.28
Vibrating tube method, m1 = 0.19 | – | 1016.04 | 1013.63
Vibrating tube method, m1 = 0.2089 | – | 1017.65 | 1015.21
Vibrating tube method, m1 = 0.2289 | – | 1019.31 | 1016.84
Vibrating tube method, m1 = 0.2441 | – | 1020.63 | 1018.13
Vibrating tube method, m1 = 0.264 | – | 1022.32 | 1019.79
Vibrating tube method, m1 = 0.2916 | – | 1024.67 | 1022.11
Vibrating tube method, m1 = 0.316 | – | 1026.69 | 1024.08
